According to patent publication US11331299B2, “Medicinal use of serrulatane diterpenes” (The University of Sydney, priority 2016, dated 2022):

Legend:
[1] = molecular target: pCAF(h) (Homo sapiens, UniProt Q92831); test: Epigenetic enzyme assay, Histone acetyltransferases (HATs); assay type: biochemical; conditions: read-out: % Inhibition of Control Values
[2] = molecular target: T1, NSD3/WHSC1L1 (h) (Homo sapiens, UniProt Q9BZ95); test: Epigenetic enzyme assay, Methyltransferases (MTs); assay type: biochemical; conditions: 10 μM; read-out: % Inhibition of Control Values
T1 sequence (Q9BZ95 1-1437): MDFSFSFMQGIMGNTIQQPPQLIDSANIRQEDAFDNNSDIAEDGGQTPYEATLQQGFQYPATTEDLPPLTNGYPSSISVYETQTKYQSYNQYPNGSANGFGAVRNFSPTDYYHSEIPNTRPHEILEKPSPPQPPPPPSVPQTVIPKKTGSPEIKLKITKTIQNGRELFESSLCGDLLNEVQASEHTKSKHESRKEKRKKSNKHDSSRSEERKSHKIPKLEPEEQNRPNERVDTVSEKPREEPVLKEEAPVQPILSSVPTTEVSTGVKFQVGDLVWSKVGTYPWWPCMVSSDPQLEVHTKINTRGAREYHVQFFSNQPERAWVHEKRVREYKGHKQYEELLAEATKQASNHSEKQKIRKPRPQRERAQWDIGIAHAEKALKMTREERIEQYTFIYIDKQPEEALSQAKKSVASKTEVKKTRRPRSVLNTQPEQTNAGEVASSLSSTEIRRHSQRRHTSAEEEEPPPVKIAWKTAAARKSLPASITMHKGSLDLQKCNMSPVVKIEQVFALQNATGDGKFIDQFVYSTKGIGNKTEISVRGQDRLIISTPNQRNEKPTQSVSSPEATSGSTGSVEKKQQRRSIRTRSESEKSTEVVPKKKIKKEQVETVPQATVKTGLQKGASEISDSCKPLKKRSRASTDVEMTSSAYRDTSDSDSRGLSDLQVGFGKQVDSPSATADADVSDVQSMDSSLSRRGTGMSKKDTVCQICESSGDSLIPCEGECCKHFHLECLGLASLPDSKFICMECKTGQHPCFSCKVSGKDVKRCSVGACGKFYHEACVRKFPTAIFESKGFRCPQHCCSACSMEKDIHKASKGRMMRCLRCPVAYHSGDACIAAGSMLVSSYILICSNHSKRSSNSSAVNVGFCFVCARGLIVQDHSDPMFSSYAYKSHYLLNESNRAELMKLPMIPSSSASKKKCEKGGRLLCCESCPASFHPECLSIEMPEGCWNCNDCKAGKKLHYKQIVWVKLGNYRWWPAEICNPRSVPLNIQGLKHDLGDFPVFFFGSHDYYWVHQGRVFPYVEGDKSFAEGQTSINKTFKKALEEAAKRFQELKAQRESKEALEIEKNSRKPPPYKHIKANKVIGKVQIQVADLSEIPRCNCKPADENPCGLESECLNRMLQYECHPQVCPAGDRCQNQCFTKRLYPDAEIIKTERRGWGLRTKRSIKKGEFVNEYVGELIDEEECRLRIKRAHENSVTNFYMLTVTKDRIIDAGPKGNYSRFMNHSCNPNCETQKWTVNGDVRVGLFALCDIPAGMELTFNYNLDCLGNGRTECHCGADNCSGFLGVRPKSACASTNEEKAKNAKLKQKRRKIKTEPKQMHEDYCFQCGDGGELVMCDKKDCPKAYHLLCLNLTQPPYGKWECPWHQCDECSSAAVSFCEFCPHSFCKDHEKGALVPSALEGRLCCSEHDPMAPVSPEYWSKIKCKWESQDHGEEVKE

[3] = molecular target: T2, PB1(2) (h) bromodomain (Homo sapiens, UniProt Q86U86); test: Epigenetic binding assay, Bromodomain; conditions: read-out: % Inhibition of Control Specific Binding
T2 construct: Bromodomain
T2 sequence (Q86U86 177-287 limits assumed): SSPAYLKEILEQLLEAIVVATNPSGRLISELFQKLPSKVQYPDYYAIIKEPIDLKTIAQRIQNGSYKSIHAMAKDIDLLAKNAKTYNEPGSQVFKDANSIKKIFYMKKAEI

[4] = molecular target: T3, CYP2C9 (Homo sapiens, UniProt P11712); test: Cytochrome P450 Inhibition (CYP panel); assay type: in vitro ADME; conditions: human liver microsomes, probe diclofenac; for inhibition at 10 µM: read-out: % Inhibition of Control Values
T3 construct: Human liver microsomes; from tissue; host or cells: human liver microsomes
T3 sequence (P11712 whole entry): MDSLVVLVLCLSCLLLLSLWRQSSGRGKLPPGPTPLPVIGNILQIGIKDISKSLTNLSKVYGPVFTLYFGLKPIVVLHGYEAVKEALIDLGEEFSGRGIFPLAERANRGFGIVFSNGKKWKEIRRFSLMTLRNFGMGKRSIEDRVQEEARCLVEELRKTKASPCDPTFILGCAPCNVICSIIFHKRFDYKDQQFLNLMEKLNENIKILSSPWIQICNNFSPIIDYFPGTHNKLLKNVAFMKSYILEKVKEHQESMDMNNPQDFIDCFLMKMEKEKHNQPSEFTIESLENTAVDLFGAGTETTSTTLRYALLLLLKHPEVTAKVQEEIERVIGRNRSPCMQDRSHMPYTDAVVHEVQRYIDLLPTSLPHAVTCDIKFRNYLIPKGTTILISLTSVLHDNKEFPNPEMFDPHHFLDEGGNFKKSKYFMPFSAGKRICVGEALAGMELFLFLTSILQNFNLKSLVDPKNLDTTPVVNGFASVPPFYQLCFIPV

[5] = molecular target: T4, Monoamine Oxidase MAO-B (Homo sapiens, UniProt P27338); test: Monoamine Oxidase MAO-B; assay type: biochemical; conditions: for remaining activity at 10 µM: assay year 2015, read-out: % Control Response
T4 construct: host or cells: Insect Hi5 cells
T4 sequence (P27338 1-520): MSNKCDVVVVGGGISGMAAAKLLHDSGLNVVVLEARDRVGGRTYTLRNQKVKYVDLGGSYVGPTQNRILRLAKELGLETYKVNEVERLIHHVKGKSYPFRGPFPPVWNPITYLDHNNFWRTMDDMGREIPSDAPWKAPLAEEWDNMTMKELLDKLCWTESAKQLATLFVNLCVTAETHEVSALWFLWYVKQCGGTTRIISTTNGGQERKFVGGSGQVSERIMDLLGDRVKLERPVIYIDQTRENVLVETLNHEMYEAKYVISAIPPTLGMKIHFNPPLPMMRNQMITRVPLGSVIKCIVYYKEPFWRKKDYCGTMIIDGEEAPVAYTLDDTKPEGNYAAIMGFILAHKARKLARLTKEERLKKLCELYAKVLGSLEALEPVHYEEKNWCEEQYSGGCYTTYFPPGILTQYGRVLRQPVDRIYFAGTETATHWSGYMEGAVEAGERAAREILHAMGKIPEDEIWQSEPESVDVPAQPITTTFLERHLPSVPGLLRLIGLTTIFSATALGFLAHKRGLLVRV
Protocol: The in vitro pharmacological studies were conducted by Eurofins PanLab (Taiwan) using the parameters shown in Table 13 with respect to appropriate literature references.

[6] = molecular target: T5, BRD3(1) (h) bromodomain (Homo sapiens, UniProt Q15059); test: Epigenetic binding assay, Bromodomain; conditions: read-out: % Inhibition of Control Specific Binding
T5 construct: Bromodomain
T5 sequence (Q15059 34-140 limits assumed): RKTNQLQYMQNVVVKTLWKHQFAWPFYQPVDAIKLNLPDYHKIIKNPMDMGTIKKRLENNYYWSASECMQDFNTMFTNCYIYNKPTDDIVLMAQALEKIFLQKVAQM

[7] = molecular target: T6, TAF1(2)(h) bromodomain (Homo sapiens, UniProt P21675); test: Epigenetic binding assay, Bromodomain; conditions: 10 μM; for inhibition at 10 µM: read-out: % Inhibition of Control Specific Binding
T6 construct: Bromodomain
T6 sequence (P21675 1519-1628 limits assumed): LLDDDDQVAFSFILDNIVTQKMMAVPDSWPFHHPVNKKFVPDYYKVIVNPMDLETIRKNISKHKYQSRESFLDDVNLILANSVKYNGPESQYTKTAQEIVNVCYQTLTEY

pCAF(h), sequence (Q92831 whole entry): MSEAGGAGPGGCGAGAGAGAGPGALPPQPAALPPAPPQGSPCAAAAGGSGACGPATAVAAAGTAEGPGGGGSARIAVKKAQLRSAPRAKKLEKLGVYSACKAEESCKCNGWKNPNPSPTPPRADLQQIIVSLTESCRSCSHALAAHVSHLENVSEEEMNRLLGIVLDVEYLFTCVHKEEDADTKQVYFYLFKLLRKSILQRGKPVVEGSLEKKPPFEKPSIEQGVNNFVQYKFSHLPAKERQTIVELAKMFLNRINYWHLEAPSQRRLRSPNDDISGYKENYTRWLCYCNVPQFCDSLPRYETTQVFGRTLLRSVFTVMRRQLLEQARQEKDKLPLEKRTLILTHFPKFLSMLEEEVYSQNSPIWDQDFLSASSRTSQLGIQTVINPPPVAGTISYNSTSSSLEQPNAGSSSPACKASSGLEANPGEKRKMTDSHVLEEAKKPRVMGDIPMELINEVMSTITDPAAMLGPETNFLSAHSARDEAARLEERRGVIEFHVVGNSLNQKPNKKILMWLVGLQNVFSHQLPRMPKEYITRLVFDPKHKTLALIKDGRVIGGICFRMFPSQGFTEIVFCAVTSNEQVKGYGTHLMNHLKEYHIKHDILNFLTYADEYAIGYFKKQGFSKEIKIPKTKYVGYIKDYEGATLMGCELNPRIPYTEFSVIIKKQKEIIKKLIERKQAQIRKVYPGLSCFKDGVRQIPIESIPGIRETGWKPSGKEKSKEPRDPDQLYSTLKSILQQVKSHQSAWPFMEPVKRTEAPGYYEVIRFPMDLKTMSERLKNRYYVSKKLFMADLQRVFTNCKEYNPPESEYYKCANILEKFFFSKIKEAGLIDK

Structure (SMILES) | inhibition at 10 µM [1] [%] | inhibition at 10 µM [2] [%] | inhibition at 10 µM [3] [%] | inhibition at 1 µM [4] [%] | inhibition at 10 µM [4] [%] | % Control Response ([5]; 10 μM, assay year 2015) | remaining activity at 10 µM [5] [%] | inhibition at 10 µM [6] [%] | % Inhibition of Control Specific Binding [7] | inhibition at 10 µM [7] [%]
CC(C)=CCC[C@H](CO)[C@@H]1CC[C@@H](C)c2c1cc(C)c(O)c2O [Compound 1, 7,8,18-trihydroxyserrulat-14-ene] | -25 | -17 | 31 | 5 | 77 | potent inhibitor | 75 | 47 | significant inhibitory activity | 62
CC(C)=CCC[C@@H]1C(O)Oc2c(C)cc(O)c3c2[C@H]1CC[C@H]3C (some centres unmarked) [Compound 2, 5,18-epoxyserrulat-14-en-8,18-diol] | -26 | 11 | 22 | 20 | 72 | – | 39 | 17 | – | 28
CC(C)=CCC[C@@H]1COc2c(C)cc(O)c3c2[C@H]1CC[C@H]3C [Compound 3, 5,18-epoxy-8-hydroxyserrulat-14-ene] | -20 | -35 | 13 | – | – | – | 18 | 13 | – | 22
CC(C)=CCC[C@H](C)[C@@H]1CC[C@@H](C)c2c1cc(C)c(O)c2O [Compound 4, 7,8-dihydroxyserrulat-14-ene] | – | – | – | 31 | 91 | – | – | – | – | –
